Earlier results as cited in patent publication US12447174B2, “Microdaily EMF protects against oxidative and inflammatory damage, and acute and late adverse effects of EMF radiation” (priority 2021, dated 2025).
“Also recorded” adds a separate entry of the source.

Columns and labels:
N9 microglia cells = N9 microglia cells in culture
[1] = system: workers chronically exposed to ELF-EMF radiation from high voltage electricity
male heavy smokers = conditions: beta-carotene alone
[2] = system: rats exposed to 900 MHz radiation; conditions: compared to EMF irradiated animals not receiving luteolin
[3] = system: patients with Alzheimer's disease
heart disease = conditions: humans
porcine blood platelets = conditions: 1 KHz, 220 V/m, 30 and 60 minutes
[4] = system: hippocampus and cerebellum of rats; conditions: RF-EMF 900 MHz 60 min/day for 21 days
rats = conditions: EMF radiation emitted from mobile phones, supplementation
[5] = system: microglia cells in culture
kidney of rats = conditions: 900 MHz
hippocampus of rats = conditions: prenatal exposure to 900 MHz EMF radiation
[6] = system: Human embryonic kidney cells (HEK293); conditions: HEK293, 2.4 GHz for 1 h, treatment before exposure

For `CC(C)(C)c1nc2c3cc[nH]c(=O)c3c3cc(F)ccc3c2[nH]1` [pyridone 6], the “EMF radiation induced inflammatory responses” value (N9 microglia cells) is listed as “suppressed EMF radiation induced inflammatory responses”.

For `Oc1ccc(C=Cc2cc(O)cc(O)c2)cc1` [resveratrol], the “increased oxidative stress (damage) from ELF-EMF radiation” value [1] is given as “reduced this damage”.

In the case of `CC1=C(/C=C/C(C)=C/C=C/C(C)=C/C=C/C=C(C)/C=C/C=C(C)/C=C/C2=C(C)CCCC2(C)C)C(C)(C)CCC1` [beta-carotene], the “risk of lung cancer” value (male heavy smokers) is listed as “increased the risk of lung cancer”.

In the case of `O=c1cc(-c2ccc(O)c(O)c2)oc2cc(O)cc(O)c12` [luteolin], the “numbers of Leydig cells, primary spermatocytes, and spermatids” value [2] is listed as “enhanced the number of these cells”.

In the case of Vitamin E, the “rate of decline in cognitive function” value ([3]; early phase of Alzheimer's disease) is given as “reduced the rate of decline in cognitive function”, the “treatment effect in Alzheimer's disease” value ([3]; patients with Alzheimer's disease) is given as “ineffective” and the “effect in heart disease on primary and most secondary outcomes” value (heart disease) is given as “ineffective”.

In the case of vitamin A, the “EMF-induced increase in malondialdehyde (MDA) levels” value (porcine blood platelets) is given as “significantly attenuated such changes; also recorded: significantly attenuated this damage”.

For `Nc1nc2ncc(CNc3ccc(C(=O)N[C@@H](CCC(=O)O)C(=O)O)cc3)nc2c(=O)[nH]1` [folic acid], the “reduction in pyramidal and granular cells in hippocampus and dentate gyres and Purkinje cell number in cerebellum” value [4] is listed as “decreased these changes”.

In the case of vitamin D, the “EMF radiation impaired immune function” value (rats) is listed as “mitigated”.

In the case of `COc1cc(/C=C/C(=O)CC(=O)/C=C/c2ccc(O)c(OC)c2)ccc1O` [Curcumin], the “EMF-induced elevation of pro-inflammatory cytokines” value [5] is listed as “prevented” and the “EMF-induced reduced phagocytic activity” value [5] is listed as “prevented”.

In the case of `COc1ccc2[nH]cc(CCNC(C)=O)c2c1` [melatonin], the “EMF radiation induced oxidative damage in the kidney” value (kidney of rats) is given as “prevented” and the “EMF radiation-induced neuronal damage in the hippocampus” value (hippocampus of rats) is given as “prevented EMF radiation-induced neuronal damage”.

In the case of `[Se]` [selenium], the “EMF radiation-induced biochemical changes (MDA, SOD, glutathione peroxidase, apoptosis, caspase-3, Bcl2)” value [6] is listed as “reduced such EMF radiation-induced biochemical changes”.

In the case of omega-3-fatty acids, the “EMF radiation-induced neuronal damage in the hippocampus” value (hippocampus of rats) is given as “prevented EMF radiation-induced neuronal damage”.
